Target: T1, LXRβ (Homo sapiens, UniProt P55055)
T1 construct: Co-transfection expression plasmids, comprising full-length LXRα (pCMX-h LXRα[…] or LXRβ (pCMX-hLXRβ)); expressed in transfected cells; host or cells: CV-1 African Green Monkey Kidney Cells
T1 sequence (P55055 1-460): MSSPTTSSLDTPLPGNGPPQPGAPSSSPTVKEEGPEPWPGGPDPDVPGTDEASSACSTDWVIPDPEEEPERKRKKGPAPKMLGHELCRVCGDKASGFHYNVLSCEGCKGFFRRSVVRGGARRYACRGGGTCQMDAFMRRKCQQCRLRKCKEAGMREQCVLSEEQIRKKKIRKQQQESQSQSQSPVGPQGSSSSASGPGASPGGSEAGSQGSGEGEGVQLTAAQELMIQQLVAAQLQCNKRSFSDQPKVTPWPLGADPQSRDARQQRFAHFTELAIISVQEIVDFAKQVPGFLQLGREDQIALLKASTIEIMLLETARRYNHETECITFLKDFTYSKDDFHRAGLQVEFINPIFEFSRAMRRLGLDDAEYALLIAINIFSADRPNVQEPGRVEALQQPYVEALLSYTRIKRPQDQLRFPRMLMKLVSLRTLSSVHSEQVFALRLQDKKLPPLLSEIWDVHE
T1 sequence (P19793 1-462 partner): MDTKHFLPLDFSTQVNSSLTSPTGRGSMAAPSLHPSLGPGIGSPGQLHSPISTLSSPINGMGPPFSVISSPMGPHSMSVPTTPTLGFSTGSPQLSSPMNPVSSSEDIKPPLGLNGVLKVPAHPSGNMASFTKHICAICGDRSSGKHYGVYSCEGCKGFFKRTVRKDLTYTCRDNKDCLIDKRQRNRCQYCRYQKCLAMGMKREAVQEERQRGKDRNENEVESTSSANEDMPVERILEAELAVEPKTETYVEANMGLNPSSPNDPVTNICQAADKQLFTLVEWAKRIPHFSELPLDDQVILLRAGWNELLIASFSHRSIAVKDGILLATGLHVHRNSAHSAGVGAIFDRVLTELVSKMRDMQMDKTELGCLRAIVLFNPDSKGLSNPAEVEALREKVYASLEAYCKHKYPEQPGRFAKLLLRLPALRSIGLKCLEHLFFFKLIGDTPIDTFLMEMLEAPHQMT
Test: Co-transfection assay (LXRE luciferase reporter), LXRβ
Format: cell-based
Details: for EC50: CV-1 cells transfected with pCMX-hLXRβ and LXREx1-Tk-Luciferase, 20 hours incubation; for Emax: LXRβ co-transfection, relative to high control 1-(2,4-difluorobenzyl)-2-oxo-6-(4-phenoxyphenyl)-4-(trifluoromethyl)-1,2-dihydropyridine-3-carbonitrile, read-out: % Efficacy
Summary of the method: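 CV-1 / pCMX-hLXRβ + LXREx1-Tk-Luc + β-gal; cpd 20 h, 37 °C, ≤0.5% DMSO; Steady-Glo luminescence. 11-pt ½-log curves, duplicate wells, sigmoidal fit → EC50; % efficacy vs high-control agonist, DMSO low control; mean of ≥2 expts.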

EC50 [nM]	Emax [%]	SMILES
159	69	Cc1nc(-c2cc(-c3cccc(S(C)(=O)=O)c3)ccc2-n2cc(C(F)(F)F)nc2C)c(-c2ccc(OCC3CC3)c(F)c2)o1 [Example 404, 5-(4-(cyclopropylmethoxy)-3-fluorophenyl)-2-methyl-4-(4-(2-methyl-4-(trifluoromethyl)-1H-imidazol-1-yl)-3′-(methylsulfonyl)biphenyl-3-yl)oxazole]
199	50	CCOc1ncc(-c2oc(C)nc2-c2cc(-c3cc(F)c(CO)c(S(C)(=O)=O)c3)ccc2-n2cc(C(F)(F)F)nc2C)cc1F [Example 472, (3′-(5-(6-ethoxy-5-fluoropyridin-3-yl)-2-methyloxazol-4-yl)-3-fluoro-4′-(2-methyl-4-(trifluoromethyl)-1H-imidazol-1-yl)-5-(methylsulfonyl)biphenyl-4-yl)methanol]
270	93	Cc1ccc(Cc2cnnn2-c2cc(-c3cccc(S(C)(=O)=O)c3)ccc2-n2cc(C(F)(F)F)nc2C)cc1 [Example 126, 5-[(4-methylphenyl)methyl]-1-{3′-(methylsulfonyl)-4-[2-methyl-4-(trifluoromethyl)-1H-imidazol-1-yl]biphenyl-3-yl}-1H-1,2,3-triazole]
13	70	Cc1nc(C(F)(F)F)cn1-c1ccc(-c2ccc(CO)c(S(C)(=O)=O)c2)cc1-c1nc(CC(C)C)oc1-c1ccc(OC(F)(F)F)cc1 [Example 563, (3′-(2-isobutyl-5-(4-(trifluoromethoxy)phenyl)oxazol-4-yl)-4′-(2-methyl-4-(trifluoromethyl)-1H-imidazol-1-yl)-3-(methylsulfonyl)-[1,1′-biphenyl]-4-yl)methanol]
40	91	Cc1nc(-c2ccc(OC(F)(F)F)cc2)c(-c2cc(-c3cc(F)c(CO)c(S(C)(=O)=O)c3)ccc2-n2cc(C(F)(F)F)nc2C)o1 [Example 603, (3-fluoro-3′-(2-methyl-4-(4-(trifluoromethoxy)phenyl)oxazol-5-yl)-4′-(2-methyl-4-(trifluoromethyl)-1H-imidazol-1-yl)-5-(methylsulfonyl)-[1,1′-biphenyl]-4-yl)methanol]
598	62	CS(=O)(=O)c1cc(-c2cc(Cl)c(-n3cnc(C(F)(F)F)c3)c(-n3nncc3-c3ccc(OC(F)(F)F)cc3)c2)cc(F)c1CO [Example 193, [3′-chloro-3-fluoro-5-(methylsulfonyl)-4′-[4-(trifluoromethyl)-1H-imidazol-1-yl]-5′-(5-{4-[(trifluoromethyl)oxy]phenyl}-1H-1,2,3-triazol-1-yl)biphenyl-4-yl]methanol]
239	39	Cc1nc(-c2cc(-c3cc(F)c(CO)c(S(C)(=O)=O)c3)ccc2-n2cc(C(F)(F)F)nc2C)c(-c2cccnc2OC(F)F)o1 [Example 389, (3′-(5-(2-(difluoromethoxy)pyridin-3-yl)-2-methyloxazol-4-yl)-3-fluoro-4′-(2-methyl-4-(trifluoromethyl)-1H-imidazol-1-yl)-5-(methylsulfonyl)biphenyl-4-yl)methanol]
202	94	Cc1nc(C(F)(F)F)cn1-c1ccc(-c2cccc(S(C)(=O)=O)c2)cc1-c1oc(CCN2CCCC2)nc1-c1ccc(OC(F)(F)F)cc1 [Example 620, 5-(4-(2-methyl-4-(trifluoromethyl)-1H-imidazol-1-yl)-3′-(methylsulfonyl)-[1,1′-biphenyl]-3-yl)-2-(2-(pyrrolidin-1-yl)ethyl)-4-(4-(trifluoromethoxy)phenyl)oxazole]
550	64	Cc1nc(-c2cc(-c3cccc(S(C)(=O)=O)c3)ccc2-n2cc(C(F)(F)F)nc2C)c(-c2ccc(F)c(OC(F)F)c2)o1 [Example 460, 5-(3-(difluoromethoxy)-4-fluorophenyl)-2-methyl-4-(4-(2-methyl-4-(trifluoromethyl)-1H-imidazol-1-yl)-3′-(methylsulfonyl)biphenyl-3-yl)oxazole]
1520	44	Cc1nc(C(F)(F)F)cn1-c1ccc(-c2cccc(S(C)(=O)=O)c2)cc1-n1nncc1Cc1ccccc1Cl [Example 219, 5-(2-chlorobenzyl)-1-(4-(2-methyl-4-(trifluoromethyl)-1H-imidazol-1-yl)-3′-(methylsulfonyl)-[1,1′-biphenyl]-3-yl)-1H-1,2,3-triazole]
130	45	Cc1nc(-c2cc(-c3cc(F)c(CO)c(S(C)(=O)=O)c3)ccc2-n2cc(C(F)(F)F)nc2C)c(-c2ccc(OC3CCCCC3)nc2)o1 [Example 409, (3′-(5-(6-(cyclohexyloxy)pyridin-3-yl)-2-methyloxazol-4-yl)-3-fluoro-4′-(2-methyl-4-(trifluoromethyl)-1H-imidazol-1-yl)-5-(methylsulfonyl)biphenyl-4-yl)methanol]
1950	74	Cc1nc(C(=O)NCC(F)(F)F)cn1-c1ccc(-c2cccc(S(C)(=O)=O)c2)cc1-n1nncc1-c1ccc(OC(F)(F)F)cc1 [Example 3, 2-methyl-1-[3′-(methylsulfonyl)-3-(5-{4-[(trifluoromethyl)oxy]phenyl}-1H-1,2,3-triazol-1-yl)biphenyl-4-yl]-N-(2,2,2-trifluoroethyl)-1H-imidazole-4-carboxamide]
307	80	Cc1nc(C(F)(F)F)cn1-c1ccc(-c2cccc(S(C)(=O)=O)c2)cc1-n1nncc1-c1ccc(OC(F)(F)F)cc1Cl [Example 68, 5-{2-chloro-4-[(trifluoromethyl)oxy]phenyl}-1-{3′-(methylsulfonyl)-4-[2-methyl-4-(trifluoromethyl)-1H-imidazol-1-yl]biphenyl-3-yl}-1H-1,2,3-triazole]
350	49	Cc1nc(C(F)(F)F)cn1-c1ccc(-c2cc(F)c(CO)c(S(C)(=O)=O)c2)cc1-c1nc(C2CC2)cn1-c1ccc(Cl)cc1 [Example 647, (3′-(1-(4-chlorophenyl)-4-cyclopropyl-1H-imidazol-2-yl)-3-fluoro-4′-(2-methyl-4-(trifluoromethyl)-1H-imidazol-1-yl)-5-(methylsulfonyl)-[1,1′-biphenyl]-4-yl)methanol]
82	89	Cc1nc(-c2cc(-c3cccc(C(C)(C)C(N)=O)c3)ccc2-n2cc(C(F)(F)F)nc2C)c(-c2ccc(OC(F)F)cc2)o1 [Example 542, 2-(3′-(5-(4-(difluoromethoxy)phenyl)-2-methyloxazol-4-yl)-4′-(2-methyl-4-(trifluoromethyl)-1H-imidazol-1-yl)-[1,1′-biphenyl]-3-yl)-2-methylpropanamide]
214	80	CNS(=O)(=O)c1cccc(-c2cc(F)c(-n3cc(C(F)(F)F)nc3C)c(-n3nncc3-c3ccc(Cl)cc3)c2)c1 [Example 209, 3′-[5-(4-chlorophenyl)-1H-1,2,3-triazol-1-yl]-5′-fluoro-N-methyl-4′-[2-methyl-4-(trifluoromethyl)-1H-imidazol-1-yl]biphenyl-3-sulfonamide]
203	80	Cc1nc(-c2ccc3c(c2)OC(F)(F)O3)c(-c2cc(-c3cc(Cl)c(CO)c(S(C)(=O)=O)c3)ccc2-n2cc(C(F)(F)F)nc2C)o1 [Example 623, (3-chloro-3′-(4-(2,2-difluorobenzo[d][1,3]dioxol-5-yl)-2-methyloxazol-5-yl)-4′-(2-methyl-4-(trifluoromethyl)-1H-imidazol-1-yl)-5-(methylsulfonyl)-[1,1′-biphenyl]-4-yl)methanol]
201	105	Cc1nc(C(F)(F)F)cn1-c1ccc(-c2cccc(S(C)(=O)=O)c2)cc1-c1cnnn1-c1ccc(OC(F)(F)F)cc1 [Example 242, 5-{3′-(methylsulfonyl)-4-[2-methyl-4-(trifluoromethyl)-1H-imidazol-1-yl]biphenyl-3-yl}-1-{4-[(trifluoromethyl)oxy]phenyl}-1H-1,2,3-triazole]
28	100	Cc1cc(-c2cc(-c3cccc(S(C)(=O)=O)c3)ccc2-n2cc(C(F)(F)F)nc2C)n(-c2ccc3c(c2)OC(F)(F)O3)n1 [Example 304, 1-(2,2-difluorobenzo[d][1,3]dioxol-5-yl)-3-methyl-5-(4-(2-methyl-4-(trifluoromethyl)-1H-imidazol-1-yl)-3′-(methylsulfonyl)-[1,1′-biphenyl]-3-yl)-1H-pyrazole]
